Results on 5 compounds are retold here after patent US5707817A, “Carbohydrate-based vaccine and diagnostic reagent for trichinosis” (Colorado State University Research Foundation, priority 1995, dated 1998).

For test [1], the system named is binding of Tsp 130 antibody to TSL-1 antigen. As to the kind of experiment: Competition ELISA: disaccharide inhibition of Tsp 130 antibody binding to TSL-1 antigen (Example 5). Also noted: species or system T. spiralis. Particulars: for inhibition of binding of Tsp 130 antibody to TSL-1 antigen: about 500 μg/ml; for relative affinity of Tsp 130 binding: in words, Example 5. As to the method:
(§1) Monoclonal antibody Tsp 130 was prepared as described in Denkers et al. (J. Immunol. 144:3152-3159, 1990). TSL-1 antigens were prepared from muscle stage larvae by affinity purification using a Tsp 130 antibody preparation and methods as described in Denkers et al., J. Immunol., ibid., and Denkers et al., Mol. Biochem. Parasitol., ibid.
(§2) Wells in an ELISA plate were coated with TSL-1 antigens as follows. A 96-well Immunlon II ELISA plate, available from Dynatech Laboratories, Chantilly, Va., was coated with about 100 μl/well of a solution containing about 15 ng of TSL-1 antigens per 100 μl carbonate buffer at pH 9.6, overnight, at about 4° C. Following the overnight incubation, the TSL-1 antigen-containing solution was discarded from the wells of the ELISA plate. No wash was performed. The wells of the ELISA plate were then filled to the top with about 10% dry milk in phosphate buffered saline and allowed to incubate for about 1 hour at room temperature. Following the 1 hour incubation, the milk solution was discarded from the wells. No wash was performed.
(§3) Samples in which Tsp-130 monoclonal antibodies and disaccharides, as listed below, were pre-incubated prior to addition to the treated ELISA plate were prepared as follows. One thousand-fold serial dilutions of the following disaccharides, ranging from about 1×10^-6 fg/ml to about 1 mg/ml, were prepared in water: (a) α-tyvelose(1,3)β-d-N-acetylgalactosamine (also referred to herein as α-tyv-GalNAc); (b) β-tyvelose(1,3)β-d-N-acetylgalactosamine (also referred to herein as β-tyv-GalNAc); and (c) α-glucoseα-D-glucose (also referred to herein as α-glc-glc, or trehalose). The disaccharide-containing serial dilutions were then mixed with an about 1:6,400 dilution of Tsp 130 antibody at an about 1:1 (v:v) ratio. The samples were incubated for overnight at about 4° C.
(§4) About 100 μl of the pre-incubation samples were added in triplicate to wells in the milk-coated ELISA plate. The plate was incubated for about 1 hour at room temperature to allow any unbound Tsp 130 antibody in each sample to bind to TSL-1 antigen coated onto the ELISA plate. The plate was then washed 3 times with water.
(§5) The amount of Tsp 130 antibody that bound to TSL-1 antigen coated onto the ELISA plate was determined using the following method. About 100 μl of an about 1:8,000 dilution of horse radish peroxidase-conjugated goat anti-mouse IgG antibody (available from Kirkegaard & Perry Laboratories, Inc., Gaithersburg, Md.) was added to each well of the ELISA plate. The plate was then incubated for about 45 minutes at room temperature. Following incubation, the plate was washed 5 times with 0.05% Tween 20 in phosphate-buffered saline (PBS). The peroxidase-conjugated antibodies which bound to Tsp 130 antibody in the wells were then detected by (a) adding 100 μl/well of 3,3',5,5'-tetramethylbenzidine mixed 1:1 (v:v) with 0.02% hydrogen peroxide in a citric acid buffer (i.e., TMB Microwell Peroxidase Substrate System available from Kirkegaard & Perry) and (b) incubating the plate for about 5 minutes at room temperature. The color reaction was stopped by adding about 100 μl/well of 1M o-phosphoric acid. The color reaction was quantitated using a Microplate Reader #7520, available from Cambridge Technology, Inc., Watertown, Mass. at a wavelength of 450 nm.

Test [2] relates to Tsp 130 binding to the crude T. spiralis muscle stage larval lysate E11.5. As to the kind of experiment: Competitive inhibition assay: disaccharide inhibition of Tsp 130 binding to crude muscle stage larval lysate E11.5 (Example 7). Conditions: for inhibition of Tsp 130 binding to E11.5 lysate: about 500 μg/ml. As to the method: as §3, §4, §5
Monoclonal antibody Tsp 130 was prepared as described in Example 5. A crude muscle larval lysate of T. spiralis, referred to herein as E11.5, was prepared according to the method as described in Reason et al., ibid.
An Immunlon II ELISA plate coated with E11.5 lysate was prepared using the method described in Example 5 with the variation that wells in the plate were coated with about 100 μl/well of a solution containing about 250 ng of E11.5 lysate per 100 μl carbonate buffer at pH 9.6. […]

In test [3] the test system is binding of Tsp 130 antibody to T. spiralis TSL-1 antigens and E11.5 lysate.
For test [4], the system named is Tsp 130 binding to TSL-1 antigen. In words: Competitive inhibition assay: disaccharide inhibition of Tsp 130 binding to TSL-1 antigen (Example 6). Further details: species or system T. spiralis. As to the method: as §1, §2, §3
About 100 μl of the pre-incubation samples were added in triplicate to wells in the milk-coated ELISA plate. The plate was incubated for about 1 hour at room temperature to allow any unbound Tsp 130 antibody in each sample to bind to TSL-1 antigen coated onto the ELISA plate. […]
The amount of Tsp 130 antibody that bound to TSL-1 antigen coated onto the ELISA plate was determined using the following method. […] The peroxidase-conjugated antibodies which bound to Tsp 130 antibody in the wells were then detected by (a) adding 100 μl/well of 3,3',5,5'-tetramethylbenzidine mixed 1:1 (v:v) with 0.02% hydrogen peroxide in a citric acid buffer (i.e., TMB Microwell Peroxidase Substrate System available from Kirkegaard & Perry) and (b) incubating the plate for about 5 minutes at room temperature. […] The color reaction was quantitated using a Microplate Reader #7520, available from Cambridge Technology, Inc., Watertown, Mass. at a wavelength of 450 nm. […]

Where two headings read alike, the source gives them in different places.

As to `OC[C@H]1O[C@H](O[C@H]2O[C@H](CO)[C@@H](O)[C@H](O)[C@H]2O)[C@H](O)[C@@H](O)[C@@H]1O` [α-glc-glc, α-glucoseα-D-glucose, reference compound], in test [1], the “inhibition of binding of Tsp 130 antibody to TSL-1 antigen” value (“inhibition of binding … to TSL-1 antigen” for short) is “about 30%” and the “relative affinity of Tsp 130 binding” value was “even weaker”. Further, in test [2], the “inhibition of Tsp 130 binding to E11.5 lysate” value (“inhibition … to E11.5 lysate” for short) is “about 7%”.

As to “β-3,6-dideoxy-D-arabinohexose [β-tyvelose]”, the “competitive inhibition of Tsp 130 antibody binding, comparison” value in test [3] (in words, Examples 5 through 7) is “better than α-tyvelose and even better than α-glc-glc”.

Turning to `CC(=O)N[C@@H]1[C@@H](O[C@@H]2O[C@H](C)[C@@H](O)C[C@@H]2O)[C@@H](O)[C@@H](CO)O[C@H]1O` [β-tyv-GalNAc, β-tyvelose(1,3)β-d-N-acetylgalactosamine], in test [1], the “inhibition of binding … to TSL-1 antigen” value is reported as “about 100%”. The “relative affinity of Tsp 130 binding” value was “higher affinity than to α-tyv-GalNAc” in test [1]; “higher affinity than to α-tyv-GalNAc” in test [4] (in words, Example 6); “higher affinity than to α-tyv-GalNAc or to α-glc-glc” in test [2] (in words, Example 7). For the same compound, the figures for the “inhibition of Tsp 130 binding to TSL-1 antigen” value in test [4] (about 100 μg/ml) and in test [4] (about 1 mg/ml) were “about 92%” and “about 97%”, respectively. Besides, in test [2], the “inhibition … to E11.5 lysate” value is “about 97%”.

`C[C@H]1O[C@H](O)[C@@H](O)C[C@@H]1O` [α-tyvelose]: the “competitive inhibition of Tsp 130 antibody binding, comparison” value in test [3] is “able to competitively inhibit Tsp 130 antibody binding to TSL-1 antigen but at a higher concentration than β-tyvelose”.

Turning to `CC(=O)N[C@@H]1[C@@H](O[C@H]2O[C@H](C)[C@@H](O)C[C@@H]2O)[C@@H](O)[C@@H](CO)O[C@H]1O` [α-tyv-GalNAc, α-tyvelose(1,3)β-d-N-acetylgalactosamine], the “inhibition of binding … to TSL-1 antigen” value in test [1] was “about 50%”. Besides, the “inhibition of Tsp 130 binding to TSL-1 antigen” value in test [4] (about 1 mg/ml) is “about 74%”. Besides, in test [2], the “inhibition … to E11.5 lysate” value was “about 28%”.
